In paper PMC5319851 (Bioorganic & medicinal chemistry, 2016):

Legend:
[1] = target: RpMetAP1 (Rickettsia prowazekii, UniProt Q9ZCD3)
[2] = test system: primary pulmonary vascular endothelial cells (ECs)
[3] = test system: HsMetAP1; settings: read-out: HsMetAP1 IC50; cited from earlier work
[4] = test system: HsMetAP2; settings: read-out: HsMetAP2 IC50; cited from earlier work

Sequence of RpMetAP1 (Q9ZCD3 whole entry, looked up): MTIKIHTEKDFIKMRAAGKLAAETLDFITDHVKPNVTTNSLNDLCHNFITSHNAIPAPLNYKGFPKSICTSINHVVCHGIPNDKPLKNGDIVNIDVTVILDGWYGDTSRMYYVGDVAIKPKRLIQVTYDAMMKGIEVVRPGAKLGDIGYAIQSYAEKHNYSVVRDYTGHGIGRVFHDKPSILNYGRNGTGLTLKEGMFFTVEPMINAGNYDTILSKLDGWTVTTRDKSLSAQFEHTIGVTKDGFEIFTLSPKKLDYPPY

Oc1ccc(Cl)c2cccnc12 [Compound 22, 5-chloro-8-quinolinol]
Hill Slope (quinolinol species) [1]: 1.9 ± 0.2

Nc1nnc(SCc2ccc(Cl)cc2)[nH]1 [Compound 16]
Effect of compound alone on appearance of EC monolayers [2]: no overt effect on the appearance of the monolayers | Host EC metabolism (WST-1) of uninfected ECs [2]: stimulated EC metabolism

Cc1ccc(-c2ccc(C(=O)O)o2)cc1 [Compound 5]
Hill Slope (furoic acid species) [1]: 1.0 ± 0.1

O=C(O)c1ccc(-c2cccc(C(F)(F)F)c2)o1 [Compound 3]
Hill Slope (furoic acid species) [1]: 1.0 ± 0.1

CC(C)(C)c1ccc(CSc2nnc(N)[nH]2)cc1 [Compound 19]
IC50 [3]: > 15 µM | IC50 [4]: > 15000 nM

O=C(O)c1ccc(-c2cccc([N+](=O)[O-])c2)o1 [Compound 2]
Hill Slope (furoic acid species) [1]: 1.0 ± 0.1

Nc1n[nH]c(SCc2ccccc2Cl)n1 [Compound 15]
Host EC metabolism (WST-1) of uninfected ECs [2]: stimulated EC metabolism

Cc1ccccc1-c1ccc(C(=O)O)o1 [Compound 8]
Hill Slope (furoic acid species) [1]: 1.3 ± 0.1

O=C(O)c1ccc(-c2ccccc2C(F)(F)F)o1 [Compound 6]
Hill Slope (furoic acid species) [1]: 2.1 ± 0.1

O=C(O)c1ccc(-c2ccccc2)o1 [Compound 4, 5-phenyl-2-furoic acid]
Hill Slope (furoic acid species) [1]: 1.0 ± 0.1

Nc1n[nH]c(SCc2ccccc2)n1 [Compound 12]
Host EC metabolism (WST-1) of uninfected ECs [2]: stimulated EC metabolism

O=[N+]([O-])c1cc(CN2CCOCC2)c(O)c2ncccc12 [Compound 26]
Hill Slope (quinolinol species) [1]: 1.0 ± 0.1

Cc1cccc(-c2ccc(C(=O)O)o2)c1 [Compound 9]
Hill Slope (furoic acid species) [1]: 1.0 ± 0.1

Oc1c(CN2CCOCC2)cc(Cl)c2cccnc12 [Compound 24]
Hill Slope (quinolinol species) [1]: 1.5 ± 0.1

O=[N+]([O-])c1ccc(O)c2ncccc12 [Compound 23, nitroxoline, reference compound]
Hill Slope (quinolinol species) [1]: 1.7 ± 0.5

O=C(O)c1ccc(-c2ccc(Br)cc2)o1 [Compound 7]
Hill Slope (furoic acid species) [1]: 1.0 ± 0.1

Cc1ccc2cccc(O)c2n1 [Compound 20, 2-methyl-8-quinolinol]
IC50 [3]: > 15 µM | Hill Slope (quinolinol species) [1]: 1.1 ± 0.1 | IC50 [4]: 2030 ± 300 nM
